≈ marks a conversion by molar mass, not a printed value.
Columns and labels:
Helicobapter pylori [1] = assay: Inhibition halos of the bacterial growth (impregnated disks on agar); type: cell-based; settings: for activity against the Helicobapter pylori strains used: 10 strains
Experimental: Comparison substance: Metronidazole Solubilization of the substances : All the substances to be studied are dissolved at room temperature in DMSO.
Some commercially available antibiogram disks are so impregnated with the above mentioned compounds that each disk has concentration equal to 10, 1, 0.1, 0.01 µg.
10 strains of Helicobapter pylori are used of recent clinical isolation.
Columbia Blood Agar Base is used, containing 5% of defibrinated horse blood, 2 % of calf serum, 2 vials of Vitox per liter of medium and Vancomicine (10 µg/ml) Trimetoprim lactate(5 µg/ml) and Polimixin B (2.5 U/ml).
0.1 ml of a suspension of the different used strains are uniformly distributed onto Petri plates, containing 20 ml of Columbia Blood Agar base, obtained by taking a sample, by means of a platinum loop, of different colonies from a 48 hours culture, grown in anaerobiosis jars with "Gas Pack", without a catalyst and diluted into a physiological solution.
4 disks per plate, previously impregnated with the substances under examination, are then placed onto the agar layer of each plate.
After 48 hours of anaerobiosis incubation, as above described, the inhibition halos of the bacterial growth, produced by the different activity of the substances inside the agar, are evaluated.

Helicobapter pylori [2] = assay: Minimal inhibiting concentration (agar dilution); type: cell-based
Experimental: Substances under examination: EU11100, EU11102, EU11103, EU11104. Comparison substance: Metronidazole Solubilization of the substances: All the substances to be studied are dissolved at room temperature in DMSO. […] 10 strains of Helicobapter pylori are used of recent clinical isolation […] The sowing of the bacteria, prepared as described in the preceding test is carried out by means a "multi-point inoculator". After 48 hours incubation under the condition described in the preceding test, the plates are examined and the Minimal Inhibiting Concentration is evaluated, namely that dose corresponding to growth absence.

MIC50 (Helicobapter pylori [2]; 10 strains): 0.12 µg/mL (≈ 0.701 µM)
MIC90 (Helicobapter pylori [2]; 10 strains): 0.25 µg/mL (≈ 1.46 µM)
MIC range (Helicobapter pylori [2]; 10 strains): 0.015 to 0.25 µg/mL
MIC (Helicobapter pylori [2]; strain 1): 0.25 µg/mL (≈ 1.46 µM)
MIC (Helicobapter pylori [2]; strain 2): 0.06 µg/mL (≈ 0.351 µM)
MIC (Helicobapter pylori [2]; strain 3): 0.25 µg/mL (≈ 1.46 µM)
MIC (Helicobapter pylori [2]; strain 4): 0.25 µg/mL (≈ 1.46 µM)
MIC (Helicobapter pylori [2]; strain 5): 0.015 µg/mL (≈ 0.0876 µM)
MIC (Helicobapter pylori [2]; strain 6): 0.12 µg/mL (≈ 0.701 µM)
MIC (Helicobapter pylori [2]; strain 7): 0.25 µg/mL (≈ 1.46 µM)
MIC (Helicobapter pylori [2]; strain 8): 0.25 µg/mL (≈ 1.46 µM)
MIC (Helicobapter pylori [2]; strain 9): 0.12 µg/mL (≈ 0.701 µM)
MIC (Helicobapter pylori [2]; strain 10): 0.12 µg/mL (≈ 0.701 µM)
SMILES: Cc1ncc([N+](=O)[O-])n1CCO [Metronidazole, reference compound]
activity against the Helicobapter pylori strains used (Helicobapter pylori [1]; 0.1 µg/disk): inactive
activity against the Helicobapter pylori strains used (Helicobapter pylori [1]; 1 µg/disk): inactive
Inhibition halo (mm), Average (Helicobapter pylori [1]; average of 10 strains, 10 µg/disk): 39.5 mm
activity against Helicobapter pylori (Helicobapter pylori [1]; general statement, at a low concentration): poorly effective
Inhibition halo (mm) at the concentration (µg/disk) (Helicobapter pylori [1]; strain 1, 0.01 µg/disk): 0 mm
Inhibition halo (mm) at the concentration (µg/disk) (Helicobapter pylori [1]; strain 1, 0.1 µg/disk): 0 mm
Inhibition halo (mm) at the concentration (µg/disk) (Helicobapter pylori [1]; strain 1, 1 µg/disk): 0 mm
Inhibition halo (mm) at the concentration (µg/disk) (Helicobapter pylori [1]; strain 1, 10 µg/disk): 45 mm
Inhibition halo (mm) at the concentration (µg/disk) (Helicobapter pylori [1]; strain 2, 0.01 µg/disk): 0 mm
Inhibition halo (mm) at the concentration (µg/disk) (Helicobapter pylori [1]; strain 2, 0.1 µg/disk): 0 mm
Inhibition halo (mm) at the concentration (µg/disk) (Helicobapter pylori [1]; strain 2, 1 µg/disk): 0 mm
Inhibition halo (mm) at the concentration (µg/disk) (Helicobapter pylori [1]; strain 2, 10 µg/disk): 33 mm
Inhibition halo (mm) at the concentration (µg/disk) (Helicobapter pylori [1]; strain 3, 0.01 µg/disk): 0 mm
Inhibition halo (mm) at the concentration (µg/disk) (Helicobapter pylori [1]; strain 3, 0.1 µg/disk): 0 mm
Inhibition halo (mm) at the concentration (µg/disk) (Helicobapter pylori [1]; strain 3, 1 µg/disk): 0 mm
Inhibition halo (mm) at the concentration (µg/disk) (Helicobapter pylori [1]; strain 3, 10 µg/disk): 45 mm
Inhibition halo (mm) at the concentration (µg/disk) (Helicobapter pylori [1]; strain 4, 0.01 µg/disk): 0 mm
Inhibition halo (mm) at the concentration (µg/disk) (Helicobapter pylori [1]; strain 4, 0.1 µg/disk): 0 mm
Inhibition halo (mm) at the concentration (µg/disk) (Helicobapter pylori [1]; strain 4, 1 µg/disk): 0 mm
Inhibition halo (mm) at the concentration (µg/disk) (Helicobapter pylori [1]; strain 4, 10 µg/disk): 42 mm
Inhibition halo (mm) at the concentration (µg/disk) (Helicobapter pylori [1]; strain 5, 0.01 µg/disk): 0 mm
Inhibition halo (mm) at the concentration (µg/disk) (Helicobapter pylori [1]; strain 5, 0.1 µg/disk): 0 mm
Inhibition halo (mm) at the concentration (µg/disk) (Helicobapter pylori [1]; strain 5, 1 µg/disk): 0 mm
Inhibition halo (mm) at the concentration (µg/disk) (Helicobapter pylori [1]; strain 5, 10 µg/disk): 42 mm
Inhibition halo (mm) at the concentration (µg/disk) (Helicobapter pylori [1]; strain 6, 0.01 µg/disk): 0 mm
Inhibition halo (mm) at the concentration (µg/disk) (Helicobapter pylori [1]; strain 6, 0.1 µg/disk): 0 mm
Inhibition halo (mm) at the concentration (µg/disk) (Helicobapter pylori [1]; strain 6, 1 µg/disk): 0 mm
Inhibition halo (mm) at the concentration (µg/disk) (Helicobapter pylori [1]; strain 6, 10 µg/disk): 41 mm
Inhibition halo (mm) at the concentration (µg/disk) (Helicobapter pylori [1]; strain 7, 0.01 µg/disk): 0 mm
Inhibition halo (mm) at the concentration (µg/disk) (Helicobapter pylori [1]; strain 7, 0.1 µg/disk): 0 mm
Inhibition halo (mm) at the concentration (µg/disk) (Helicobapter pylori [1]; strain 7, 1 µg/disk): 0 mm
Inhibition halo (mm) at the concentration (µg/disk) (Helicobapter pylori [1]; strain 7, 10 µg/disk): 32 mm
Inhibition halo (mm) at the concentration (µg/disk) (Helicobapter pylori [1]; strain 8, 0.01 µg/disk): 0 mm
Inhibition halo (mm) at the concentration (µg/disk) (Helicobapter pylori [1]; strain 8, 0.1 µg/disk): 0 mm
Inhibition halo (mm) at the concentration (µg/disk) (Helicobapter pylori [1]; strain 8, 1 µg/disk): 0 mm
Inhibition halo (mm) at the concentration (µg/disk) (Helicobapter pylori [1]; strain 8, 10 µg/disk): 40 mm
Inhibition halo (mm) at the concentration (µg/disk) (Helicobapter pylori [1]; strain 9, 0.01 µg/disk): 0 mm
Inhibition halo (mm) at the concentration (µg/disk) (Helicobapter pylori [1]; strain 9, 0.1 µg/disk): 0 mm
Inhibition halo (mm) at the concentration (µg/disk) (Helicobapter pylori [1]; strain 9, 1 µg/disk): 0 mm
Inhibition halo (mm) at the concentration (µg/disk) (Helicobapter pylori [1]; strain 9, 10 µg/disk): 38 mm
Inhibition halo (mm) at the concentration (µg/disk) (Helicobapter pylori [1]; strain 10, 0.01 µg/disk): 0 mm
Inhibition halo (mm) at the concentration (µg/disk) (Helicobapter pylori [1]; strain 10, 0.1 µg/disk): 0 mm
Inhibition halo (mm) at the concentration (µg/disk) (Helicobapter pylori [1]; strain 10, 1 µg/disk): 0 mm
Inhibition halo (mm) at the concentration (µg/disk) (Helicobapter pylori [1]; strain 10, 10 µg/disk): 37 mm

— patent EP0535528A1, “Antibacterial 5-Nitro-1-methyl-imidazolyl-3-terbutyl-2-hydroxy-aryl-carbinols” (EURORESEARCH S.r.L., priority 1991, dated 1993)
